Read-outs that look alike come from different tables or passages of the source. Peptide text beside a SMILES is read from it.
What was measured:
[1] = target: T1, Rabbit lung ACE (Oryctolagus cuniculus, UniProt P12822); test: ACE inhibition assay (RP-HPLC, HHL substrate); format: biochemical; conditions: for Inhibition (%): at the peak's own peptide concentration; for IC50: identified peptides of peaks E6 to E9
T1 construct: Enzymes including pepsin, pancreatin and rabbit lung ACE were purchased from Sigma Chemical Co; purchased Sigma Chemical Co. (St. Louis, MO, USA); host or cells: rabbit lung (tissue-derived)
T1 sequence (P12822 34-1310): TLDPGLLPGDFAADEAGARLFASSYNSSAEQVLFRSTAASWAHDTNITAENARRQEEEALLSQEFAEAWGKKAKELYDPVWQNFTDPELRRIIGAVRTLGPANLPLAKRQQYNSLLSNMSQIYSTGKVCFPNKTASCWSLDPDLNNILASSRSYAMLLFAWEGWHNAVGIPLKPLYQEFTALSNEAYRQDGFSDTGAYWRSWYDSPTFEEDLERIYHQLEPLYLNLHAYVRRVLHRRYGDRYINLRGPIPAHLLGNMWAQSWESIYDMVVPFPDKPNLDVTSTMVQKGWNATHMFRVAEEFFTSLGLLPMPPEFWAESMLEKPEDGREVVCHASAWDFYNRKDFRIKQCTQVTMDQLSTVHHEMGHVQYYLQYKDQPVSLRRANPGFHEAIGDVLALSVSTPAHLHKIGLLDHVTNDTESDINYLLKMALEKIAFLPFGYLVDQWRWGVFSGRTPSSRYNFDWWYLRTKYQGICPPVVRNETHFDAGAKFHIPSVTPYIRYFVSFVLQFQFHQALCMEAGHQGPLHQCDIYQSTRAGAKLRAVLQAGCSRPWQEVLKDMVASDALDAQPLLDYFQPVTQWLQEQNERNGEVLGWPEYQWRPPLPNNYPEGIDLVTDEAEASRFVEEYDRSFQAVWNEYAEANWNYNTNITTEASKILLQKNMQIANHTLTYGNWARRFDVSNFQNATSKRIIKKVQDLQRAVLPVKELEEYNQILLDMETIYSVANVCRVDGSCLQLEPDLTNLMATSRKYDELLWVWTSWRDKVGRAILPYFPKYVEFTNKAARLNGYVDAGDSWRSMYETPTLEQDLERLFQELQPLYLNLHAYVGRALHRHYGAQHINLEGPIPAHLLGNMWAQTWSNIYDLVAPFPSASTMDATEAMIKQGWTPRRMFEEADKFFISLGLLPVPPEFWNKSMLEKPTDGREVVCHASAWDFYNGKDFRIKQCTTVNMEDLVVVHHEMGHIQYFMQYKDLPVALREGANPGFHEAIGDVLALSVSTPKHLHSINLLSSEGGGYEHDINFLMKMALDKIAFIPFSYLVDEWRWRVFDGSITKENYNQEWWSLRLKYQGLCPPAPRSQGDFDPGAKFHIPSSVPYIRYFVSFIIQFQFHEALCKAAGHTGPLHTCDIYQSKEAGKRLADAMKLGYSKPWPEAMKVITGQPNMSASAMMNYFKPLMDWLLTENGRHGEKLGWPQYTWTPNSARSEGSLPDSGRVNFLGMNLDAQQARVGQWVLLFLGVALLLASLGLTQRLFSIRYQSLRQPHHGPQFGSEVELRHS
Protocol: RP-HPLC was used to measure ACE inhibition by means of a method devised by Cushman and Cheung. The sample consisted of 15 mM HHL in Na-borate buffer (100 mM, pH 8.3) plus NaCl (300 mM). […] Equal volumes (75 μL) of the ACE solution and samples passed through a 5-kDa MWCO membrane were then incubated for 10 min at 37 °C. […] of the solution of HHL was then added and incubation was continued for a further 30 min. 1.0 N HCl (250 μL) was used to stop the reaction and 10 μL was injected into a Luna C18 column. […] Finally, inhibition activity was calculated using the following formula:Inhibition activity (%) = ((Ec - Es) / (Ec - Eb)) × 100where Ec is the absorbance when the buffer was added as control, Es is the absorbance when the sample was added to the reaction mixture (sample), and Eb is the absorbance when the stop solution was added before the reaction occurred (blank). […] The data used in this study were all averages of three readings or standard deviations (SDs).

[2] = test system: ACE; conditions: cited from earlier work
[3] = test system: ACE activity in plasma; set-up: method as in doi:10.1016/j.idairyj.2015.09.004; conditions: human volunteers, 100 mg oral, at 1.5 h; cited from earlier work
[4] = set-up: method as in doi:10.1016/j.idairyj.2015.09.004; conditions: human volunteers, 100 mg oral, after 30 min; cited from earlier work
[5] = target: angiotensin I-converting enzyme (rabbit lung ACE) (rabbit) (UniProt P12822)
[6] = target: angiotensin I-converting enzyme (rabbit lung ACE) (rabbit) (UniProt P12822); remark: listed apart in the source
[7] = RP-HPLC peaks of fraction E from PX-5G
[8] = equivalent of the μM value, read-out: IC50 (mg/mL) (converted)
[9] = peptides from Pacific cod skin gelatin hydrolysates (<1 kDa)
[10] = dipeptides from salmon muscle hydrolysate

For `C[C@H](NC(=O)[C@H](C)NC(=O)[C@@H](N)Cc1c[nH]c2ccccc12)C(=O)O` [Peak E6, Trp-Ala-Ala] (H-Trp-Ala-Ala-OH), the “Inhibition (%)” value [1, 7] was 41.9%, the IC50 [1, 8] was 119 µM and the IC50 ([1]; read-out: IC50) was 118 ± 2.8 µM.

For `C[C@H](N)C(=O)N[C@@H](Cc1c[nH]c2ccccc12)C(=O)N[C@@H](Cc1c[nH]c2ccccc12)C(=O)O` [Peak E7, Ala-Trp-Trp] (H-Ala-Trp-Trp-OH), the “Inhibition (%)” value [1, 7] was 81.1%, the IC50 [1, 8] was 9.4 µM and the IC50 ([1]; read-out: IC50) was 9.4 ± 0.6 µM.

With `CC[C@H](C)[C@H](N)C(=O)N[C@@H](Cc1c[nH]c2ccccc12)C(=O)N[C@@H](Cc1c[nH]c2ccccc12)C(=O)O` [Peak E8, Ile-Trp-Trp] (H-Ile-Trp-Trp-OH) the “Inhibition (%)” value [1, 7] was 93.4%, the IC50 [1, 8] was 0.516 µM and the IC50 ([1]; read-out: IC50) was 0.51 ± 0.1 µM.

For `CC(C)C[C@H](NC(=O)[C@@H](N)Cc1c[nH]c2ccccc12)C(=O)O` [Peak E9, Trp-Leu] (H-Trp-Leu-OH; N-terminus and C-terminus assumed), the ACE-inhibition mode [2] is given as “noncompetitive inhibitors”, the IC50 [2] is given as 29.9 to 34.1 µM and the “IER (inhibitory efficiency ratio)” value [1, 7] is given as 3021.4 %/mg/mL. For the same compound, the “Inhibition (%)” value [1, 7] was 42.3%, the IC50 [1, 8] was 26.8 µM and the IC50 ([1]; read-out: IC50) was 26.8 ± 0.9 µM. For the same compound, the “decrease of ACE activity in plasma” value [3] was 16–22% and the maximum plasma concentration [4] was 29 to 36 pmol/mL.

Work on Ala-Trp-Trp (peptide) yielded an IC50 of inhibition of ACE enzyme activity (hippuric acid released from HHL, RP-HPLC, 37 °C, pH 8.3) [5] of 9.4 μM and an Inhibition (%) of ACE enzyme activity by peak E7 at 0.058 mg/mL peptide [6] of 81.1%.

In the case of G-A-S-S-G-M-P-G (GASSGMPG), the IC50 [2, 9] is listed as 6.9 µM.

For G–R-G-S–V-P–A–Hyp–G-P, the IC50 ([2]; peptide from squid skin collagen hydrolysate fraction <1 kDa) is given as 47.8 µM.

Ile-Trp-Trp (peptide) gave an IC50 of inhibition of ACE enzyme activity (hippuric acid released from HHL, RP-HPLC, 37 °C, pH 8.3) [5] of 0.51 μM and an Inhibition (%) of ACE enzyme activity by peak E8 at 0.028 mg/mL peptide [6] of 93.4%.

For L-A-Y-A, the IC50 [2, 9] is given as 14.5 µM.

In the case of Leu-Trp, the ACE-inhibition mode [2] is given as “noncompetitive inhibitors”.

In the case of Met-Trp, the IC50 [2, 10] is listed as 9.8 µM.

With Trp-Ala-Ala (peptide) the IC50 of inhibition of ACE enzyme activity (hippuric acid released from HHL, RP-HPLC, 37 °C, pH 8.3) [5] was 118 μM and the Inhibition (%) of ACE enzyme activity by peak E6 at 0.048 mg/mL peptide [6] was 41.9%.

Work on Trp-Leu (peptide) yielded an IC50 of inhibition of ACE enzyme activity (hippuric acid released from HHL, RP-HPLC, 37 °C, pH 8.3) [5] of 26.8 μM and an Inhibition (%) of ACE enzyme activity by peak E9 at 0.014 mg/mL peptide [6] of 42.3%.

For Trp-Met, the IC50 [2, 10] is given as 98.6 µM.

For “Val-Arg-Tyr-Leu (VRYL; printed: Val-Arg-Tyr-Leu)”, the “IC50 before hydrolysis with gastrointestinal proteases” value ([2]; peptide from Manchego cheese) is listed as 9 µg/mL.
